How the values were obtained:
skin tissue = experiment: Skin adverse events (skin necrosis) after subcutaneous injection into the inguinal fat pad; type: in vivo, LVG Syrian Golden Hamsters
From the text: (§1) Model: The inguinal fat pads were used as a model tissue. In the golden hamster, these subcutaneous fat pads lying bilaterally in the inguinal region were continuous with fat pads located laterally on each respective flank, and thus were referenced here as inguinal-lateral fat pads or ILFPs. The length of each fat pad offered the opportunity for two injections spaced approximately […] within each fat pad, and similarly placed control injections in the contralateral fat pad of the same animal. The unilateral experimental treatment in this model offered the advantage of paired comparison of treated and non-treated fat pads within individual animals, and served as a model to assess lipolytic effects of test compounds.
(§2) Test Articles: Polidocanol: Solutions provided by Advantar (or other), 0.5%, 1.25%, and 2.0%, formulated with propylene glycol.
(§3) Treatment: Under isoflurane anesthesia, the right ILFP was injected with 0.2 cc of drug solution at two sites (medial and lateral portions of the ILFP), spaced 0.5 cm apart. The left ILFP was injected in medial and lateral sites with filtered vehicle control solution. A total of 36 animals were divided into three dose groups, outlined in the following table:
(§4) The animals were injected percutaneously with 0.2 mL/injection of test article solution at up to four (4) sites (in the medial, central, and lateral portions of the ILFP) running superiorly to caudally, spaced 0.5 cm apart. The injections were carried out by inserting the needle into the right inguinal region, locating the tip of the needle in the middle of the fat pad between the peritoneal wall and the right leg. In hamsters, the fat could be roughly visualized as a light area beneath the skin. The tip of the needle was at a depth adequate to enter the inguinal fat (as discerned by the thickness of tissue when the needle tip is raised slightly upward while in its final position) while avoiding the leg muscle and the peritoneum. The needle tip was placed approximately 0.5 cm medial to a line drawn from the patella of the knee to the xyphoid appendix of the sternum.

fat tissue = experiment: Co-solvent injected with polidocanol (tolerability, uniformity of fat necrosis); type: in vivo; conditions: as co-solvent
adipose tissue = experiment: Histological analysis of treated adipose tissue (H&E); type: in vivo, LVG Syrian Golden Hamsters; conditions: H&E stained sections
Experimental: Histological analysis: The right (polidocanol treated) medial injection sites of all six subjects, and one left (saline treated) site from each treatment group (animals #3 and #5), were analyzed histologically to determine evidence of necrosis within the adipose tissue. The selected samples were sectioned at a thickness of 20 microns taken at intervals of 0.5 mm through the tissue. The sections were mounted and stained with H&E and examined microscopically for evidence of necrosis or inflammation. Representative images of each tissue were recorded with a Carl Zeiss color camera.
In addition, there is a lymphomononuclear inflammatory infiltrate with macrophage phagocytosis of lipid cell debris.

[1] = system: inguinal-lateral fat pad (ILFP); experiment: Effect of polidocanol on the inguinal-lateral fat pad (ILFP) of hamsters: fat weight analysis; type: in vivo, LVG Syrian Golden Hamsters
From the text: Concentration of polidocanol solutions: 0.5%, 1.25% and 2%; Deoxycholate dose concentration: 1.0%
Species: LVG Syrian Golden Hamsters, retired breeders
Body weight: 165-187 grams (on first day of treatment period); Sex: Male; Vendor: Charles River; Diet: Standard lab chow; Randomization: Animals were grouped so that the mean body weights are approximately equal among the treatment subgroups
as §1, §2, §3
Harvesting: On day 28 (injections at Day 0) and 56 (injections at Day 0 and Day 28), the animals were sacrificed and the ILFPs excised and weighed (see “INGUINAL/LATERAL FAT PAD HARVESTING PROCEDURE,” below). Medial and lateral portions of each ILFP were weighed together. After weighing, each portion was frozen separately on dry ice and stored frozen for histological analysis.
Fat weight analysis: Results were expressed primarily as the mean difference between the right and left ILFPs in grams (A R-L) and as the percent difference (A R-L %). Statistical analysis was performed.
as §4
With the animal lying ventral side up, skin was cut along abdominal midline from the umbilicus to a point caudal to the penis near the bottom of the scrotum. The skin was cut from the penile area in a posterior and lateral direction toward the posterior of the hindlimb. […] An elipse was harvested of skin overlying the region of the ILFP, and placed in formalin for storage and. […]

With deoxycholate the “animals that developed severe skin necrosis” value (skin tissue; 1% deoxycholate (3 of 5 animals)) was 60% and the “skin necrosis side effect, number of animals” value (shortened to “skin necrosis side effect”) (skin tissue; Deoxycholate 1%, Group 4 (FIG. 8C)) was 3 of 5.
`CC(O)CO` (centres unmarked) [propylene glycol, propane-1,2-diol] was tested, and the “irritation when injected with polidocanol” value (fat tissue) was “non-irritating” and the “patchy and incomplete fat tissue necrosis” value (fat tissue; relative to the absence of co-solvent) was “reduced amount of patchy and incomplete fat tissue necrosis”.
With polidocanol the “histopathology of treated adipose tissue” value (adipose tissue) was “dose dependent changes of fat cell necrosis and apoptosis”, the “visible change in inguinal fat pad fullness / inguinal crease (body contour)” value ([1]; FIG. 5A-5B) was “externally visible reduction in inguinal fat pad fullness” and the “reductions in inguinal fat pad mass” value ([1]; polidocanol 0.5%, day 28 after a single treatment, formulated with propylene glycol) was 15%. The “reductions in inguinal fat pad mass” value ([1]; polidocanol 1.25%, day 28 after a single treatment, formulated with propylene glycol) was 15%, the “fat pad mass reductions” value ([1]; polidocanol 2.0%, day 28 after a single treatment, formulated with propylene glycol) was 10% and the “reductions in fat pad mass relative to deoxycholate” value ([1]; same optimized dosing frequency, volume, and injection spacing (FIG. 3)) was “at least equivalent to deoxycholate”. The “skin necrosis (proportion of animals)” value (skin tissue; 2% polidocanol) was 33%, the “selectivity for fat tissue relative to skin tissue” value (skin tissue; FIG. 6) was “selectively destroys fat tissue relative to skin tissue” and the “skin necrosis side effect” value (skin tissue; Polidocanol 1.25%, Group 2A, moderate skin necrosis (FIG. 8A)) was 1 of 9. For the same compound, the “skin necrosis side effect” value (skin tissue; Polidocanol 2%, Group 3B, moderate skin necrosis (FIG. 8B)) was 2 animals, the “side effects such as skin necrosis, inflammation, large subcutaneous fat droplets” value (skin tissue; polidocanol concentration greater than about 1.25%) was “higher proportion of side effects” and the “animals with mild skin breakdown” value (skin tissue; polidocanol injection at 0.5% (1 of 9 animals)) was 11%. The “animals with mild skin breakdown” value (skin tissue; polidocanol injection at 1.25% (1 of 9 animals)) was 11%.

From patent US12133836B2, “Reduction of adipose tissue” (10XBIO, LLC, priority 2015, dated 2024)
